# Data: patent US9365566B2 (Takeda Pharmaceutical Company Limited, priority 2012, dated 2016)
# Target: T1, human BTK (Homo sapiens, UniProt Q06187)
# T1 construct: GST (Glutathione-S-Transferase) (cleaved yes); made in house; host or cells: Spodoptera frugiperda Sf9 cells (baculovirus, Bac-to-Bac)
# Assay: BTK inhibition assay: BTK-mediated phosphorylation of FAM-labeled substrate 5-FAM-EEPLYWSFPAKKK-NH2 (Caliper LC-3000)
# Format: biochemical
# Settings: pIC50 = -log(IC50), IC50 molar; residues 382 to 659 of human BTK; incubated at room temperature for 60 minutes; larger values represent higher potency
# Source text: The activity of compounds as BTK inhibitors may be determined by a variety of methods, including in vitro and in vivo methods.
# This construct engineers an in-frame translational fusion with the Glutathione-S-Transferase (GST) protein for use in affinity purification. The fusion protein derived from this construct contains a protease recognition sequence to liberate the BTK from the GST affinity tag. High-titer baculoviral stocks, generated using the Bac-to-Bac® system (Invitrogen), are used to express the recombinant protein in Spodoptera frugiperda Sf9 cells in 10 L Wave bags. Recombinant proteins are isolated from cellular extracts by passage over Glutathione Sepharose 4B (GE Healthcare) and the BTK moiety is released from the GST affinity tag by treatment with PreScission protease. The BTK recombinant protein is further purified by size exclusion chromatography (HiLoad 16/60 Superdex 200, GE Healthcare) in a buffer containing 20 mM Hepes (pH 7.4), 50 mM NaCl, 10 mM MgCl2, 0.25 mM TCEP and 0.1 mM EDTA. The purity of the fractions is assessed by SDS PAGE and the peak protein fractions are pooled and concentrated using Amicon Ultra-15 Centrifugal Filter Devices (Millipore).
# The inhibitory properties of compounds relative to BTK is determined using a black 384-well-plate format in a buffer which contains 50 mM Hepes, 10 mM NaCl, 10 mM MgCl2, 0.2 mM EDTA, 0.01% Brij35®, 1 mM DTT, and 0.1 mg/mL BSA at pH 7.3. The test compound is prepared in DMSO using 2-fold serial dilutions for 11 data points, which are added to the buffer so that each dilution contains 3% DMSO. […] The reaction mixtures are incubated at room temperature for 60 minutes and then quenched by adding 25 μL of 50 mM EDTA. To quantify the fluorescent-labeled substrate and product following reaction, the test plate is loaded on a Caliper LC-3000, which measures percent of conversion by microfluidic-based separation.
# The compounds were tested in accordance with the assay described on page 34 of the specification.
# T1 sequence (Q06187 382-659): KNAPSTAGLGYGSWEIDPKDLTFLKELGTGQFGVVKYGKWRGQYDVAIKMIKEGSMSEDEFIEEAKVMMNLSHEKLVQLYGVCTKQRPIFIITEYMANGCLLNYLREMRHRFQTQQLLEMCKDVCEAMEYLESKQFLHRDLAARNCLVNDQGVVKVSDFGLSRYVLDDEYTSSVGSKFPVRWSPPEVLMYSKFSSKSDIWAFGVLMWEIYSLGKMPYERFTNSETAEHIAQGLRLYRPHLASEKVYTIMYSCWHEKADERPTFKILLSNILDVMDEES
row,Structure (SMILES),IC50
1,"CN1Cc2cc(-c3cccc4c(N)c(C(N)=O)nnc34)ccc2C1=O [Example 123, 4-amino-8-(2-methyl-1-oxoisoindolin-5-yl)cinnoline-3-carboxamide]",200 nM
2,"Cc1cc(C)cc(-c2nc3ccc(-c4cccc5c(N)c(C(N)=O)nnc45)cc3[nH]2)c1 [Example 80, 4-amino-8-(2-(3,5-dimethylphenyl)-1H-benzo[d]imidazol-6-yl)cinnoline-3-carboxamide]",39.8 nM
3,"NC(=O)c1nnc2c(-c3ccc4c(c3)CN(c3ccccc3)C4=O)cccc2c1N [Example 121, 4-amino-8-(1-oxo-2-phenylisoindolin-5-yl)cinnoline-3-carboxamide]",126 nM
4,"CC(C)(C)c1ccc(-c2nc3ccc(-c4cccc5c(N)c(C(N)=O)nnc45)cc3[nH]2)cc1 [Example 117, 4-amino-8-(2-(4-tert-butylphenyl)-1H-benzo[d]imidazol-6-yl)cinnoline-3-carboxamide]",79.4 nM
5,"NC(=O)c1nnc2c(-c3ccc4c(c3)NC(=O)C4)cccc2c1N [Example 20, 4-amino-8-(2-oxoindolin-6-yl)cinnoline-3-carboxamide]",39800 nM
6,"NC(=O)c1nnc2c(-c3ccc4nc(CCc5ccccc5)[nH]c4c3)cccc2c1N [Example 69, 4-amino-8-(2-phenethyl-1H-benzo[d]imidazol-6-yl)cinnoline-3-carboxamide]",31.6 nM
7,"Cc1cc2c(cnn2C)cc1-c1cccc2c(N)c(C(N)=O)nnc12 [Example 55, 4-amino-8-(1,6-dimethyl-1H-indazol-5-yl)cinnoline-3-carboxamide]",39.8 nM
8,"CC(C)(O)CCN1Cc2cc(-c3cccc4c(N)c(C(N)=O)nnc34)ccc2C1=O [Example 127, 4-amino-8-(2-(3-hydroxy-3-methylbutyl)-1-oxoisoindolin-5-yl)cinnoline-3-carboxamide]",25.1 nM
9,"Cn1ccc2ccc(-c3cccc4c(N)c(C(N)=O)nnc34)cc21 [Example 9, 4-amino-8-(1-methyl-1H-indol-6-yl)cinnoline-3-carboxamide]",1000 nM
10,"NC(=O)c1nnc2c(-c3ccc4nc(NCc5cccs5)[nH]c4c3)cccc2c1N [Example 88, 4-amino-8-(2-(thiophen-2-ylmethylamino)-1H-benzo[d]imidazol-6-yl)cinnoline-3-carboxamide]",10 nM
11,"Cn1cnc2cc(-c3cccc4c(N)c(C(N)=O)nnc34)cnc21 [Example 13, 4-amino-8-(3-methyl-3H-imidazo[4,5-b]pyridin-6-yl)cinnoline-3-carboxamide]",39800 nM
12,"NC(=O)c1nnc2c(-c3cc4[nH]ncc4cc3Cl)cccc2c1N [Example 105, 4-amino-8-(5-chloro-1H-indazol-6-yl)cinnoline-3-carboxamide]",15.8 nM
13,"NC(=O)c1nnc2c(-c3ccc4nc(-c5cc(Cl)cc(Cl)c5)[nH]c4c3)cccc2c1N [Example 67, 4-amino-8-(2-(3,5-dichlorophenyl)-1H-benzo[d]imidazol-6-yl)cinnoline-3-carboxamide]",63.1 nM
14,"NC(=O)c1nnc2c(-c3ccc4nc(C5CCCCC5)[nH]c4c3)cccc2c1N [Example 68, 4-amino-8-(2-cyclohexyl-1H-benzo[d]imidazol-6-yl)cinnoline-3-carboxamide]",158 nM
15,"NC(=O)c1nnc2c(-c3ccc4c(c3)CC(=O)N4)cccc2c1N [Example 8, 4-amino-8-(2-oxoindolin-5-yl)cinnoline-3-carboxamide]",1260 nM
16,"COc1ccc(-c2nc3ccc(-c4cccc5c(N)c(C(N)=O)nnc45)cc3[nH]2)cc1 [Example 74, 4-amino-8-(2-(4-methoxyphenyl)-1H-benzo[d]imidazol-6-yl)cinnoline-3-carboxamide]",79.4 nM
17,"NC(=O)c1nnc2c(-c3ccc4nc(Cc5ccccc5)[nH]c4c3)cccc2c1N [Example 77, 4-amino-8-(2-benzyl-1H-benzo[d]imidazol-6-yl)cinnoline-3-carboxamide]",631 nM

# Next, values leading:
row,IC50,Structure (SMILES)
1,10 nM,"Cc1cc2[nH]ncc2cc1-c1cccc2c(N)c(C(N)=O)nnc12 [Example 49, 4-amino-8-(6-methyl-1H-indazol-5-yl)cinnoline-3-carboxamide]"
2,100 nM,"CCn1cnc2ccc(-c3c(C)ccc4c(N)c(C(N)=O)nnc34)cc21 [Example 131, 4-amino-8-(1-ethyl-1H-benzo[d]imidazol-6-yl)-7-methylcinnoline-3-carboxamide]"
3,100 nM,"Cc1ccc2c(N)c(C(N)=O)nnc2c1-c1ccc2nncn2c1 [Example 112, 8-([1,2,4]triazolo[4,3-a]pyridin-6-yl)-4-amino-7-methylcinnoline-3-carboxamide]"
4,501 nM,"Cc1ccc2c(N)c(C(N)=O)nnc2c1-c1ccc2c(c1)c(C)nn2C [Example 36, 4-amino-8-(1,3-dimethyl-1H-indazol-5-yl)-7-methylcinnoline-3-carboxamide]"
5,100 nM,"Cc1ccc2c(N)c(C(N)=O)nnc2c1-c1ccc2[nH]nc(C)c2c1 [Example 50, 4-amino-7-methyl-8-(3-methyl-1H-indazol-5-yl)cinnoline-3-carboxamide]"
6,6.31 nM,"Cc1ccc2c(N)c(C(N)=O)nnc2c1-c1ccc2c(c1)CNC2=O [Example 124, 4-amino-7-methyl-8-(1-oxoisoindolin-5-yl)cinnoline-3-carboxamide]"
7,25.1 nM,"COc1ccc2c(N)c(C(N)=O)nnc2c1-c1ccc2cn[nH]c2c1 [Example 41, 4-amino-8-(1H-indazol-6-yl)-7-methoxycinnoline-3-carboxamide]"
8,50.1 nM,"Cc1cc(C)c2c(N)c(C(N)=O)nnc2c1-c1ccc2cn[nH]c2c1 [Example 53, 4-amino-8-(1H-indazol-6-yl)-5,7-dimethylcinnoline-3-carboxamide]"
9,63.1 nM,"COc1ccc2c(N)c(C(N)=O)nnc2c1-c1ccc2nc[nH]c2c1 [Example 46, 4-amino-8-(1H-benzo[d]imidazol-6-yl)-7-methoxycinnoline-3-carboxamide]"
10,158 nM,"Cc1ccc2c(N)c(C(N)=O)nnc2c1-c1ccc2c(C#N)n[nH]c2c1 [Example 96, 4-amino-8-(3-cyano-1H-indazol-6-yl)-7-methylcinnoline-3-carboxamide]"
11,63.1 nM,"Cc1ccc2c(N)c(C(N)=O)nnc2c1-c1ccc2c(C)n[nH]c2c1 [Example 99, 4-amino-7-methyl-8-(3-methyl-1H-indazol-6-yl)cinnoline-3-carboxamide]"
12,10 nM,"CCc1ccc2c(N)c(C(N)=O)nnc2c1-c1ccc2cn[nH]c2c1 [Example 61, 4-amino-7-ethyl-8-(1H-indazol-6-yl)cinnoline-3-carboxamide]"
13,39.8 nM,"Cc1ccc2c(N)c(C(N)=O)nnc2c1-c1ccc2c(Cl)n[nH]c2c1 [Example 108, 4-amino-8-(3-chloro-1H-indazol-6-yl)-7-methylcinnoline-3-carboxamide]"
14,100 nM,"Cc1ccc2c(N)c(C(N)=O)nnc2c1-c1cnc2ncn(C)c2c1 [Example 97, 4-amino-7-methyl-8-(1-methyl-1H-imidazo[4,5-b]pyridin-6-yl)cinnoline-3-carboxamide]"
15,79.4 nM,"Cc1ccc2c(N)c(C(N)=O)nnc2c1-c1cnc2[nH]ncc2c1 [Example 47, 4-amino-7-methyl-8-(1H-pyrazolo[3,4-b]pyridin-5-yl)cinnoline-3-carboxamide]"
16,100 nM,"Cc1ccc2c(N)c(C(N)=O)nnc2c1-c1ccc2cnn(C)c2c1 [Example 45, 4-amino-7-methyl-8-(1-methyl-1H-indazol-6-yl)cinnoline-3-carboxamide]"
17,2510 nM,"Cc1ccc2c(N)c(C(N)=O)nnc2c1-c1ccc2cn(C)nc2c1 [Example 52, 4-amino-7-methyl-8-(2-methyl-2H-indazol-6-yl)cinnoline-3-carboxamide]"
18,3980 nM,"Cc1nn(C)c2ccc(-c3cccc4c(N)c(C(N)=O)nnc34)cc12 [Example 37, 4-amino-8-(1,3-dimethyl-1H-indazol-5-yl)cinnoline-3-carboxamide]"
19,15.8 nM,"Cc1ccc2c(N)c(C(N)=O)nnc2c1-c1ccc2nc[nH]c2c1 [Example 22, 4-amino-8-(1H-benzo[d]imidazol-6-yl)-7-methylcinnoline-3-carboxamide]"
20,794 nM,"Cc1ccc2c(N)c(C(N)=O)nnc2c1-c1ccc2ncn(CCO)c2c1 [Example 134, 4-amino-8-(1-(2-hydroxyethyl)-1H-benzo[d]imidazol-6-yl)-7-methylcinnoline-3-carboxamide]"
21,200 nM,"Cc1ccc2c(N)c(C(N)=O)nnc2c1-c1ccc2ccncc2c1 [Example 57, 4-amino-8-(isoquinolin-7-yl)-7-methylcinnoline-3-carboxamide]"
22,25.1 nM,"Cc1ccc2c(N)c(C(N)=O)nnc2c1-c1cc(F)c2cn[nH]c2c1 [Example 102, 4-amino-8-(4-fluoro-1H-indazol-6-yl)-7-methylcinnoline-3-carboxamide]"
